Data taken from paper PMC12727973, “Off-target autophagy disruption associated with a novel liver toxicity in dogs for a highly basic heterobifunctional protein degrader” (Frontiers in Pharmacology, 2025).

What was measured:
[1] = tested on: primary human cholangiocytes; test: Co-treatment with V-ATPase inhibitor bafilomycin in cholangiocytes
[2] = tested on: LC3B; test: LC3B lipidation immunoblot in primary cholangiocytes; assay type: cell-based, human; details: 3 h, 300 μM
Method: Cells were treated with compounds at concentrations indicated for 3 h (immunoblotting), 18 h (proteomics), or 48 h (compound uptake) using DMSO vehicle content normalized across wells, up to 0.2%. 48 h was selected for compound uptake experiments to match the cell viability assay conditions; 18 h was selected for the initial assessment of proteome-wide changes leading to and accompanying cytotoxicity; 3 h to observe pathway changes with minimal confounding effects of cytotoxicity. […] Following compound incubation, cells were washed twice with phosphate buffer saline (PBS) and, except for compound uptake studies, lifted off plates with Accumax (Sigma-Aldrich A7089). Cells were pelleted at 700 × g for 5 min, washed with PBS, and pellets were stored at −80 °C for later sample preparation.
Lysate corresponding to 20 µg protein was combined with LDS Buffer (1X final, Thermo #NP0007) and 1 M dithiothreitol stock (100 mM final), heat denatured at 95 °C for 10 min, and loaded into the wells of a NuPage Bis-Tris Mini Protein Gel (Thermo #NP0321). Proteins were separated at 200 V for 30–40 min using a XCell SureLock Mini-Cell (Thermo #EI0001) and MES SDS Running Buffer (Thermo #NP0002).
Proteins were next transferred to a PVDF membrane (Thermo #IB24002) with an iBlot 2 Gel Transfer Device (Invitrogen #IB21001) using the standard 7 min method. […]

SMILES	Cytotoxicity alone ([1]; BafA1 alone, longer timepoints)	Effect on Compound X-induced cytotoxicity ([1]; co-treatment with Compound X, <24 h)	Effect on LC3B lipidation by Compound X ([1]; co-treatment, 100 nM or 2.5 nM BafA1, 3 h)	LC3B-II/LC3B-I [2]
CO/C1=C\C(C)=C\[C@@H](C)[C@@H](O)[C@@H](C)C/C(C)=C/C=C/[C@H](OC)[C@@H]([C@@H](C)[C@@H](O)[C@H](C)[C@@]2(O)C[C@@H](O)[C@H](C)[C@@H](C(C)C)O2)OC1=O [BafA1, Bafilomycin A1]	cytotoxic at longer timepoints	fully rescued compound-induced cytotoxicity	reduced the LC3B lipidation by Compound X	
CCN(CC)CCCC(C)Nc1ccnc2cc(Cl)ccc12 (stereo not shown) [CQ, chloroquine diphosphate]				2.1
